Test results: US11773127B2, “Compounds and methods for treating bacterial infections” (Washington University, priority 2017, dated 2023)
Converted amounts (≈) assume the structure as drawn. Read-outs that look alike come from different tables or passages of the source.

Key:
FmlHLD [1] = target: T1, FmlHLD (Escherichia coli, UniProt P77588); assay: biochemical; type: binding, E. coli
T1 construct: 6xHis (C); made in house; host or cells: E. coli C600, periplasm, pTRC99a
Source text: Bio-layer interferometry (BLI) was used to quantitate the binding affinity of select galactosides to FmlH.
Thereafter, pins were dipped in PBS for 120 s and transferred to protein samples (varying concentration of FmlHLD or fixed concentration of FmlHLD with varying concentration of galactoside compounds) for association for 300-600 s.

FmlHLD [2] = target: T1, FmlHLD; assay: biochemical; type: binding, E. coli; conditions: for PI100 (percent inhibition): galactoside at 100 μM, 100 µM; for inhibitory potency against FmlH, in words: ELISA-based competition assay
In short: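 Sialidase-treated bovine submaxillary mucin (ds-BSM) coated wells, BSA-blocked, then biotinylated FmlH^LD (20 μg/mL) with or without compound for 1 h at room temperature. Bound lectin detected by streptavidin-HRP/TMB, A450.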

[3] = Mouse liver microsome stability; type: in vitro ADME
Experimental: (§1) These compounds were assessed for their stability in simulated gastric fluid (SGF), simulated intestinal fluid (SIF), mouse liver microsomes, and blood plasma (Table 7). […] These findings are consistent with our earlier characterization of FimH antagonists (mannosides).

Mouse plasma stability = type: in vitro ADME
Experimental: as §1

Kinetic solubility = type: physicochemical
[4] = Stability in simulated intestinal fluid (SIF); type: in vitro ADME
Experimental: as §1

[5] = Stability in simulated gastric fluid (SGF); type: in vitro ADME
Experimental: as §1

[6] = Mouse pharmacokinetics, IP injection; conditions: 20 mg/kg IP
Experimental: These studies were conducted via 20 mg/kg intraperitoneal (IP) injection to inform planned future IP studies in murine studies of chronic UTI, which require a single IP dose of galactoside to persist in the plasma for 6 hours prior to measurement of bladder bacterial burdens (FIG. 17)^22.

[7] = Rat pharmacokinetics, plasma and urine, IV and PO; type: in vivo; conditions: for bioavailability: in vivo, 10 mg/kg PO vs 3 mg/kg IV, read-out: oral bioavailability (F); for bioavailability / renal clearance to the urine: rat
Experimental: In this example, the concentration of compounds 3086 and 3090 in rat plasma and urine following either a 10 mg/kg oral dose (PO; circular dots) or a 3 mg/kg intravenous dose (IV; square dots) was determined (FIG. 16, panel A (3086) and panel B (3090)). […] Thus, the metabolic stability of these compounds and clearance of these compounds has no relation to the permeability (oral or otherwise) of compounds. The highly polar nature of these molecules containing the sugar GalNAc and multiple polar functionalities precludes their permeability in the gut.

[8] = Kd (μM), inhibitory constants, fixed FmlHLD, varying galactoside in solution, immobilized ser-TF
[9] = mean with standard error of the mean
[10] = read-out: PI1 (percent inhibition), galactoside at 1 μM, mean with standard error of the mean
[11] = read-out: PI10 (percent inhibition), galactoside at 10 μM, mean with standard error of the mean
[12] = read-out: PI100 (percent inhibition), galactoside at 100 μM, mean with standard error of the mean
[13] = read-out: % Inhibition at [μM] [1], compound at 1 μM, inhibition of FmlHLD binding to ds-BSM
[14] = read-out: % Inhibition at [μM] [10], compound at 10 μM, inhibition of FmlHLD binding to ds-BSM
[15] = read-out: % Inhibition at [μM] [100], compound at 100 μM, inhibition of FmlHLD binding to ds-BSM
[16] = IC50 (μM), Table 6, sulfonamides 3078-3090
[17] = rat plasma, 10 mg/kg PO or 3 mg/kg IV

T1 sequence (P77588 25-182): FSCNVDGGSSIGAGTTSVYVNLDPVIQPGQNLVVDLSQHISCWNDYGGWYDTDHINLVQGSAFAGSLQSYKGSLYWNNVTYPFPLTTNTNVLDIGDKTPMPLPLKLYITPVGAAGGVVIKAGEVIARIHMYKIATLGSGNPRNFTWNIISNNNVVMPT

COc1ccccc1O[C@@H]1O[C@H](CO)[C@H](O)[C@H](O)[C@H]1O [Compound 5β, 2-methoxyphenyl β-D-galactopyranoside]
Kd (FmlHLD [1]; [8]): 6.5 ± 1.4 µM | PI100 (percent inhibition) (FmlHLD [2]; [9]): 97.2 ± 0.4% | inhibition at 1 µM (FmlHLD [2]; [10]): 10 ± 4.3% | inhibition at 10 µM (FmlHLD [2]; [11]): 55.7 ± 1.6% | inhibition at 100 µM (FmlHLD [2]; [12]): 97%

OC[C@H]1O[C@@H](Oc2cccc3cccnc23)[C@H](O)[C@@H](O)[C@H]1O [Compound 8HQG, reference compound]
Kd (FmlHLD [1]; Kd): 7.1 µM | inhibition at 1 µM (FmlHLD [2]; [13]): 19.2% | inhibition at 10 µM (FmlHLD [2]; [14]): 48.1% | inhibition at 100 µM (FmlHLD [2]; [15]): 95.1%

OC[C@H]1O[C@@H](Oc2cccc3cccnc23)[C@H](O)[C@@H](O)[C@H]1O [Compound 20β]
Kd (FmlHLD [1]; [8]): 7.1 ± 2.3 µM | PI100 (percent inhibition) (FmlHLD [2]; [9]): 95.1 ± 1.1% | inhibition at 1 µM (FmlHLD [2]; [10]): 19.2 ± 2.8% | inhibition at 10 µM (FmlHLD [2]; [11]): 48.1 ± 2% | inhibition at 100 µM (FmlHLD [2]; [12]): 95%

O=C(O)c1cccc(-c2ccccc2O[C@@H]2O[C@H](CO)[C@H](O)[C@H](O)[C@H]2O)c1 [Compound 29β, 2′-(α/β-D-galactopyranosyloxy)-[1,1′-Biphenyl]-3-carboxylic acid]
enhancement in binding affinity relative to Gal (FmlHLD [1]; BLI Kd ratio): ~330 fold | PI10 (percent inhibition) (FmlHLD [2]; galactoside at 10 μM, mean with standard error of the mean, 10 µM): 75.1 ± 1.0% | inhibition at 1 µM (FmlHLD [2]; [10]): 22.9 ± 5.1% | inhibition at 10 µM (FmlHLD [2]; [11]): 75% | inhibition at 100 µM (FmlHLD [2]; [12]): 99%

COc1ccccc1O[C@@H]1O[C@H](CO)[C@H](O)[C@H](O)[C@H]1O [Compound 149e]
Kd (FmlHLD [1]; Kd): 6.5 µM | inhibition at 1 µM (FmlHLD [2]; [13]): 9.99% | inhibition at 10 µM (FmlHLD [2]; [14]): 55.7% | inhibition at 100 µM (FmlHLD [2]; [15]): 97.2%

CC(=O)N[C@H]1[C@H](Oc2ccccc2-c2cccc(C(=O)O)c2)O[C@H](CO)[C@H](O)[C@@H]1O [Compound 200b-GalNAc]
Kd (FmlHLD [1]; Kd): 0.089 µM | inhibition at 1 µM (FmlHLD [2]; [13]): 35.1% | inhibition at 10 µM (FmlHLD [2]; [14]): 93% | inhibition at 100 µM (FmlHLD [2]; [15]): 99.5%

O=C(O)c1cccc(-c2ccccc2O[C@@H]2O[C@H](CO)[C@H](O)[C@H](O)[C@H]2O)c1 [Compound 200b]
Kd (FmlHLD [1]; Kd): 2.1 µM | inhibition at 1 µM (FmlHLD [2]; [13]): 12.3% | inhibition at 10 µM (FmlHLD [2]; [14]): 75.1% | inhibition at 100 µM (FmlHLD [2]; [15]): 99%

CC(=O)N[C@@H]1[C@H](Oc2cccc(C#N)c2-c2cccc(NS(C)(=O)=O)c2)OC(CO)[C@H](O)[C@@H]1O (stereo partly drawn) [Compound 3079, N-((2S,3S,4R,5R)-2-((6-cyano-3′-(methylsulfonamido)-[1,1′-biphenyl]-2-yl)oxy)-4,5-dihydroxy-6-(hydroxymethyl)tetrahydro-2H-pyran-3-yl)acetamide]
Mouse liver microsomes (t1/12 min) [3]: >145 min | Mouse plasma % remaining 2 h (Mouse plasma stability): 89.1% | solubility kinetic (Kinetic solubility; kinetic from dmso stock): 196 µM (≈ 96.3 µg/mL) | IC50 (FmlHLD [2]; [16]): 0.11 µM | SIF % remaining 2 h [4]: 100.00% | SGF % remaining 6 h [5]: 86.77%

CC(=O)N[C@H]1[C@H](Oc2cccc(F)c2-c2cccc(NS(C)(=O)=O)c2)O[C@H](CO)[C@H](O)[C@@H]1O [Compound 3080, N-((2S,3R,4R,5R,6R)-2-((6-fluoro-3′-(methylsulfonamido)-[1,1′-biphenyl]-2-yl)oxy)-4,5-dihydroxy-6-(hydroxymethyl)tetrahydro-2H-pyran-3-yl)acetamide]
Mouse liver microsomes (t1/12 min) [3]: >145 min | Mouse plasma % remaining 2 h (Mouse plasma stability): 89.1% | solubility kinetic (Kinetic solubility): 197 µM (≈ 95.4 µg/mL) | IC50 (FmlHLD [2]; [16]): 0.15 µM | SIF % remaining 2 h [4]: 93.79% | SGF % remaining 6 h [5]: 91.95%

CC(=O)N[C@H]1[C@H](Oc2cccc(C)c2-c2cccc(NS(C)(=O)=O)c2)O[C@H](CO)[C@H](O)[C@@H]1O [Compound 3084, N-((2S,3R,4R,5R,6R)-4,5-dihydroxy-6-(hydroxymethyl)-2-((6-methyl-3′-(methylsulfonamido)-[1,1′-biphenyl]-2-yl)oxy)tetrahydro-2H-pyran-3-yl)acetamide]
Cmax [6]: 7897 ng/mL | calculated AUC [6]: 6300 ng·h/mL | compound exposure at 8 h [6]: moderate compound exposure | half-life, t1/2 [6]: 1.13 h | Mouse liver microsomes (t1/12 min) [3]: >145 min | Mouse plasma % remaining 2 h (Mouse plasma stability): 100.00% | solubility kinetic (Kinetic solubility): 195 µM (≈ 93.7 µg/mL) | IC50 (FmlHLD [2]; IC50): 0.12 µM | IC50 (FmlHLD [2]; IC50 equated to a concentration, conversion of IC50 of 120 nM): 0.12 µM | SIF % remaining 2 h [4]: 100.00% | SGF % remaining 6 h [5]: 100.00%

CC(=O)N[C@H]1[C@H](Oc2cccc(C)c2-c2cccc(NS(=O)(=O)C3CC3)c2)O[C@H](CO)[C@H](O)[C@@H]1O [Compound 3086, N-((2S,3R,4R,5R,6R)-2-((3′-(cyclopropanesulfonamido)-6-methyl-[1,1′-biphenyl]-2-yl)oxy)-4,5-dihydroxy-6-(hydroxymethyl)tetrahydro-2H-pyran-3-yl)acetamide]
Mouse liver microsomes (t1/12 min) [3]: >145 min | Mouse plasma % remaining 2 h (Mouse plasma stability): 84.1% | bioavailability [7]: < 1% | renal clearance to the urine [7]: low renal clearance to the urine | clearance (Cl) [7, 17]: 43.8 mL/min/kg | t1/2 [7, 17]: 1.46 h | solubility kinetic (Kinetic solubility): 196 µM (≈ 99.3 µg/mL) | inhibitory potency against FmlH, in words (FmlHLD [2]): retain the same activity as the methyl sulfonamides | IC50 (FmlHLD [2]; [16]): 0.12 µM | SIF % remaining 2 h [4]: 100.00% | SGF % remaining 6 h [5]: 100.00%

Cc1cccc(O[C@@H]2OC(CO)[C@H](O)[C@H](O)[C@@H]2NC(=O)C(F)(F)F)c1-c1cccc(NS(C)(=O)=O)c1 (stereo partly drawn) [Compound 3088, N-((2S,3S,4R,5R)-4,5-dihydroxy-6-(hydroxymethyl)-2-((6-methyl-3′-(methylsulfonamido)-[1,1′-biphenyl]-2-yl)oxy)tetrahydro-2H-pyran-3-yl)-2,2,2-trifluoroacetimidic acid]
Mouse liver microsomes (t1/12 min) [3]: >145 min | Mouse plasma % remaining 2 h (Mouse plasma stability): 88.9% | solubility kinetic (Kinetic solubility; kinetic from dmso stock): 164 µM (≈ 87.7 µg/mL) | IC50 (FmlHLD [2]; [16]): 0.11 µM | SIF % remaining 2 h [4]: 89.15% | SGF % remaining 6 h [5]: 90.95%

CC(=O)N[C@@H]1[C@H](Oc2cccc(C(F)(F)F)c2-c2cccc(NS(C)(=O)=O)c2)OC(CO)[C@H](O)[C@@H]1O (stereo partly drawn) [Compound 3090, N-((2S,3S,4R,5R)-4,5-dihydroxy-6-(hydroxymethyl)-2-((3′-(methylsulfonamido)-6-(trifluoromethyl)-[1,1′-biphenyl]-2-yl)oxy)tetrahydro-2H-pyran-3-yl)acetamide]
Mouse liver microsomes (t1/12 min) [3]: >145 min | Mouse plasma % remaining 2 h (Mouse plasma stability): 92.2% | bioavailability [7]: < 1% | renal clearance to the urine [7]: low renal clearance to the urine | half-life [7, 17]: 1.16 h | clearance ([7]; rat plasma, 10 mg/kg PO or 3 mg/kg IV, read-out: clearance (Cl)): 57 mL/min/kg | solubility kinetic (Kinetic solubility; kinetic from dmso stock): 197 µM (≈ 105 µg/mL) | inhibitory potency against FmlH, in words (FmlHLD [2]): highest potency of the compounds tested | IC50 (FmlHLD [2]; IC50): 0.085 µM | SIF % remaining 2 h [4]: 91.9% | SGF % remaining 6 h [5]: 89.25%

O=c1c(O[C@@H]2O[C@H](CO)[C@H](O)[C@H](O)[C@H]2O)c(-c2ccc(O)c(O)c2)oc2cc(O)cc(O)c12 [QG, reference compound]
Kd (FmlHLD [1]; Kd): 391 µM | inhibition at 100 µM (FmlHLD [2]; [15]): 14.4%

CC(=O)N[C@@H]1[C@@H](O[C@@H]2O[C@H](CO)[C@H](O)[C@H](O)[C@H]2O)[C@@H](O)[C@@H](CO)O[C@@H]1O [TF, Gal-β1-3-GalNAc-α, reference compound]
Kd (FmlHLD [1]; Kd): 248 µM | inhibition at 100 µM (FmlHLD [2]; [15]): 15.5% | inhibition at 100 µM (FmlHLD [2]; [12]): 15.5 ± 6.7% | inhibition of FmlHLD binding to ds-BSM, in words (FmlHLD [2]; soluble compound at 1 mM): capable of inhibiting FmlHLD
